Test results published in patent publication US12628825B2, “Methods of controlling or preventing infestation of plants by plant-parasitic nematodes of the genus Aphelenchoides spp., especially Aphelenchoides besseyi” (SYNGENTA CROP PROTECTION AG, priority 2020, dated 2026).

Test system: Aphelenchoides besseyi
Experiment: Soybean pot trial in the greenhouse, seed treatment, nematode control
Type: in vivo
Conditions: 28-day after inoculation assessment
Description: A soybean pot trial was carried out in the greenhouse of Holambra Field Station, state of Sao Paulo, Brazil, to evaluate the efficacy of nematicidal treatments against Aphelenchoides besseyi.
The seeds of the susceptible soybean variety Nidera 6828 IPRO were treated (seed treatment) at the field station with the use of a slurry (spray solution) of 0.6 liter per 100 kg of seeds of soybean. The treated seeds (treatments 3-10) were then compared with the untreated checks.
Two seeds were sowed in 1-liter pots with the Holambra Mix (25% of Holambra station soil and 75% pasteurized sand). […] The inoculation of each plant with the nematode was performed at 8 days after emergence (at the crop stage V1) by using a pipet with 1000 juveniles of Aphelenchoides per plant, directed to the base of the plant. Each plot of the trial was 1 pot containing 1 infested plant of soybean. A total of 6 replicates per treatment was used. The plants were grown in separated plastic chambers (to avoid contamination of plots) inside a greenhouse that averaged 30° C. in the day and 20° C. in the night. Plants were watered many times per day (for keeping a favourable environment for the growth of nematode population and migration to the aerial part of plants) by an automatic sprinkler system. […]

## O=C(N[C@@H]1CC[C@@H]1c1ccc(Cl)cc1Cl)c1cccnc1C(F)(F)F (racemic) [cyclobutrifluram]
Even at the lowest rate tested of 5 g AI per 100 kg of seeds
  comparison to Avicta 500FS and Ilevo 600FS: statistically superior
Seed treatment
  activity against Aphelenchoides besseyi which attacked soybean: excellent activity
